According to US10517867B2, “Posaconazole derivative, pharmaceutical composition and use thereof” (priority 2016, dated 2019):
Where two headings read alike, the source gives them in different places.

Key:
[1] = In vitro metabolic stability in rat intestine S9; type: in vitro ADME; details: rat, pH 7.4; 37° C., 10 μM compound, 1 mg/mL S9, NADPH regeneration system; read-out: Rat intestine S9 T1/2
Method in brief: (§1)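 Human or rat plasma, preincubated 5 min at 37 °C, or intestinal S9 at 37 °C, spiked from 1 mM stock; triplicates sampled at 1, 2, 5, 15 and 30 min into cold internal standard. HPLC quantitation; half-life by non-compartmental analysis.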

physchem = details: 25 °C, water, thermodynamic from solid
[2] = In vitro metabolic stability in human intestine S9; type: in vitro ADME; details: human; 37° C., 10 μM compound, 1 mg/mL S9, NADPH regeneration system; read-out: Human intestine S9 T1/2
Method in brief: as §1

[3] = In vitro metabolic stability in human plasma; type: in vitro ADME; details: human, plasma, 37° C., 10 μM compound, read-out: Human plasma T1/2
Method in brief: as §1

[4] = test system: Candida albicans ATCC10231; experiment: Systemic fungal infection in mice, intragastric administration; type: in vivo, ICR mice; details: for responders at 20 mg/kg: Candida albicans, ATCC10231, po
[5] = In vitro metabolic stability in rat plasma; type: in vitro ADME; details: rat, plasma, 37° C., 10 μM compound, read-out: Rat plasma T1/2
Method in brief: as §1

[6] = test system: Aspergillus fumigatus AF293; experiment: Lung Aspergillus fumigatus infection in immunosuppressed mice, intragastric administration; details: mouse lung tissue, seven days later, 20 mg/kg intragastric once daily for 5 days, mean ± SD
Protocol: Aspergillus fumigatus AF293, from the Guangdong Provincial Microbial Culture Collection Center.
ICR male mice were injected intraperitoneally with cyclophosphamide 150 mg/kg and injected subcutaneously with dexamethasone 150 mg/kg for 10 consecutive days. At the same time, the blood was taken to measure the changes of peripheral white blood cells and neutrophils, and mice with neutrophils consistently lower than 100/μl were selected as successfully immunosuppressed mice. Immediately after the last injection, the mice were anesthetized with ethyl ether, and mice were transferred from the initial state of excitement to inhibition. After their bodies were relaxed, the mice were immediately taken. Left hand was used to grasp the mouse to make it stand upright, the middle finger pressed the mouth so that it could breath only with the nose, and the ring finger gently pressed the abdomen to move the diaphragm muscle upward. 30 μl of conidia suspension (Aspergillus fumigatus AF293, 3×10^6 conidia) was sent to the nostrils of the anesthetized mice by a micropipette to allow spontaneous inhalation. After the mouse returned to normal breathing, it was returned to the cage. […] Seven days later, the mice were sacrificed and their lung tissues were taken to observe the fungal loads of Aspergillus fumigatus in the lungs of the mice.

[7] = Determination of solubility in deionized water (HPLC, external standard); details: for solubility at 30 min: 25 °C, water, thermodynamic from solid
[8] = test system: Aspergillus fumigatus AF293; experiment: Lung Aspergillus fumigatus infection in immunosuppressed mice, intravenous administration; details: for survival rate of mice, day 1 / survival rate of mice, day 2 / survival rate of mice, day 3 / survival rate of mice, day 4 / survival rate of mice, day 5 / survival rate of mice, day 6 / lung fungal load: 20 mg/kg tail vein once daily for 5 days; for lung fungal load: mouse lung tissue, seven days later, mean ± SD; for responders at 20 mg/kg: Aspergillus fumigatus, AF293, in Mus musculus, iv
[9] = test system: Candida albicans ATCC10231; experiment: Candida albicans vaginitis in mice, intragastric administration; type: in vivo, KM mice; details: logarithm of the CFU values, mean ± SD of 20 mice; for vaginal fungal load of mice, day 15: 20 mg/kg intragastric once a day for 15 days; for vaginal fungal load of mice, day 3 / vaginal fungal load of mice, day 5 / vaginal fungal load of mice, day 7 / vaginal fungal load of mice, day 11: 20 mg/kg intragastric once a day
[10] = test system: Candida albicans ATCC10231; experiment: Candida albicans vaginitis in mice, intravenous administration; details: logarithm of the CFU values, mean ± SD of 20 mice; for vaginal fungal load of mice, day 5: 20 mg/kg tail vein once a day for 5 days, day 5 after infection; for vaginal fungal load of mice, day 3: 20 mg/kg tail vein once a day, day 3 after infection
Protocol: KM mice, weighing 18-22 g, female, provided by Hubei Experimental Animal Center.
The standard strain of Candida albicans was purchased from the American Type Culture
Collection, strain number ATCC10231.
Prior to being infected with Candida albicans, animals in each group were given subcutaneous injections of 0.5 ml of estradiol benzoate (2 mg/ml) for 6 consecutive days to allow them to enter the estrus phase. Injections were continued once every 2 days until the completion of the experiment. After 6 days, 20 μl of Candida albicans solution in a concentration of 3.5×10^6 CFU/ml was injected vaginally into each mouse, causing a vaginal infection model. From the first day after infection, each group of animals was given 20 mg/kg of the corresponding drug (calculated as posaconazole) in the tail vein at an administration volume of 0.1 ml/10 g once a day for 5 consecutive days. The model group was given an equal volume of solvent (physiological saline). On the 3rd and 5th days after infection, the vagina of mice were wiped with sterile cotton swabs. The cotton swabs were soaked in 0.9 ml physiological saline. The fungal solutions were diluted to 10-fold increments to give a series of concentrations, and then 100 μl of each concentration of the bacteria solutions was taken and inoculated on Sabourand's dextrose agar solid medium containing 0.5% (W/V) chloramphenicol to observe the fungal load of Candida albicans on the vagina.

[11] = test system: Aspergillus Fumigutus (AF) strains; experiment: Aspergillus fumigatus keratitis in rats, intravenous administration; details: 10 mg/kg tail vein once daily for 5 days; mean ± SD of 10 rats
[12] = Pharmacokinetics after single intravenous administration to rats; type: in vivo, SD rats; details: posaconazole in saline solution as a control, tail vein
Protocol: Administration amount: 2.5 mg/kg (calculated as posaconazole)
Administration volume: 2.5 ml/kg
Drug concentration: 1 mg/mL
Administration vehicle: normal saline
Administration route: tail vein injection
Experimental animals: SD rats, SPF grade, weighing 180-220 g, equal amount of male and female. Rats were randomly divided into groups of 6 with 3 males and 3 females.
Experimental protocol: blood samples were collected at different time points after tail vein administration and plasma posaconazole concentrations were measured.

[13] = 24 h, read-out: survival rate of mice, day 1, 20 mg/kg intragastric once daily for 5 days, day 1
[14] = 48 h, read-out: survival rate of mice, day 2, 20 mg/kg intragastric once daily for 5 days, day 2
[15] = 72 h, read-out: survival rate of mice, day 3, 20 mg/kg intragastric once daily for 5 days, day 3
[16] = 96 h, read-out: survival rate of mice, day 4, 20 mg/kg intragastric once daily for 5 days, day 4
[17] = 120 h, read-out: survival rate of mice, day 5, 20 mg/kg intragastric once daily for 5 days, day 5
[18] = 144 h, read-out: survival rate of mice, day 6, 20 mg/kg intragastric once daily for 5 days, day 6
[19] = 168 h, read-out: survival rate of mice, day 7, 20 mg/kg intragastric once daily for 5 days, day 7

| SMILES | Solubility (physchem) [mg/mL] | responders at 20 mg/kg [4, 13] [%] | responders at 20 mg/kg [4, 14] [%] | responders at 20 mg/kg [4, 15] [%] | responders at 20 mg/kg [4, 16] [%] | responders at 20 mg/kg [4, 17] [%] | responders at 20 mg/kg [4, 18] [%] | responders at 20 mg/kg [4, 19] [%] | lung fungal load ([6]; 20 mg/kg) | solubility at 30 min [7] [mg/mL] | survival rate of mice, day 1 ([8]; day 1) [%] | survival rate of mice, day 2 ([8]; day 2) [%] | survival rate of mice, day 3 ([8]; day 3) [%] | survival rate of mice, day 4 ([8]; day 4) [%] | survival rate of mice, day 5 ([8]; day 5) [%] | survival rate of mice, day 6 ([8]; day 6) [%] | lung fungal load ([8]; 20 mg/kg) | vaginal fungal load of mice, day 15 ([9]; 20 mg/kg) | vaginal fungal load of mice, day 3 ([9]; 20 mg/kg) | Amount of active fungi in cornea at day 7 [11] | other results |
| --- | --- | --- | --- | --- | --- | --- | --- | --- | --- | --- | --- | --- | --- | --- | --- | --- | --- | --- | --- | --- | --- |
| CC[C@@H](C(C)OC(=O)OC(C)OC(=O)CCOP(=O)([O-])[O-])n1ncn(-c2ccc(N3CCN(c4ccc(OC[C@@H]5CO[C@@](Cn6cncn6)(c6ccc(F)cc6F)C5)cc4)CC3)cc2)c1=O.[Na+].[Na+] (stereo partly drawn) [ST0066] | > 50 | 80 | 80 | 70 | 70 | 70 | 60 | 60 |  |  |  |  |  |  |  |  |  |  |  |  | half-life at 10 µM [1]: 36.6 ± 8.66 min; half-life at 10 µM [2]: 40.4 ± 5.21 min; half-life at 10 µM [3]: 11.3 ± 2.27 min; half-life at 10 µM [5]: 12.6 ± 4.54 min |
| CC[C@@H]([C@H](C)O)n1ncn(-c2ccc(N3CCN(c4ccc(OC[C@@H]5CO[C@@](Cn6c[n+](C(C)OC(=O)OP(=O)(O)O)cn6)(c6ccc(F)cc6F)C5)cc4)CC3)cc2)c1=O.[Na+].[Na+] (stereo partly drawn) [ST0039] | > 50 |  |  |  |  |  |  |  |  |  |  |  |  |  |  |  |  |  |  |  |  |
| CC[C@@H]([C@H](C)O)n1ncn(-c2ccc(N3CCN(c4ccc(OC[C@@H]5CO[C@@](Cn6c[n+](C(C)OC(=O)N(C)c7ncccc7COC(=O)[C@@H](N)CCCN)cn6)(c6ccc(F)cc6F)C5)cc4)CC3)cc2)c1=O (stereo partly drawn) [ST0007] |  |  |  |  |  |  |  |  | 4.12 ± 0.87 10^4 CFU/ml | > 50 | 100 | 100 | 100 | 100 | 90 | 90 | 1.68 ± 0.31 10^4 CFU/ml | 2.87 ± 0.24 | 4.35 ± 0.54 | 1.87 ± 0.35 10^3 CFU/ml | vaginal fungal load of mice, day 5 ([9]; 20 mg/kg): 4.47 ± 0.65; vaginal fungal load of mice, day 7 ([9]; 20 mg/kg): 4.23 ± 0.41; vaginal fungal load of mice, day 11 ([9]; 20 mg/kg): 3.81 ± 0.27; vaginal fungal load of mice, day 5 ([10]; 20 mg/kg): 3.87 ± 0.31; vaginal fungal load of mice, day 3 ([10]; 20 mg/kg): 4.08 ± 0.52 |
| CC[C@@H]([C@H](C)O)n1ncn(-c2ccc(N3CCN(c4ccc(OC[C@@H]5CO[C@@](Cn6cncn6)(c6ccc(F)cc6F)C5)cc4)CC3)cc2)c1=O [Posaconazole, posaconazole] |  |  |  |  |  |  |  |  |  | < 1 |  |  |  |  |  |  |  |  |  |  | plasma posaconazole detection [12]: not detected |
| CC[C@@H]([C@H](C)O)n1ncn(-c2ccc(N3CCN(c4ccc(OC[C@@H]5CO[C@@](Cn6c[n+](C(C)OC(=O)N(C)c7ncccc7COC(=O)[C@@H](N)CCCN)cn6)(c6ccc(F)cc6F)C5)cc4)CC3)cc2)c1=O (stereo partly drawn) [ST0011] |  |  |  |  |  |  |  |  | 3.47 ± 0.71 10^4 CFU/ml |  | 100 | 100 | 100 | 100 | 90 | 90 | 1.46 ± 0.27 10^4 CFU/ml | 2.81 ± 0.27 | 4.18 ± 0.27 | 1.79 ± 0.44 10^3 CFU/ml | Solubility ([7]; 25±2° C., after 30 min): >50 mg/mL; vaginal fungal load of mice, day 5 ([9]; 20 mg/kg): 4.35 ± 0.47; vaginal fungal load of mice, day 7 ([9]; 20 mg/kg): 3.85 ± 0.67; vaginal fungal load of mice, day 11 ([9]; 20 mg/kg): 3.29 ± 0.20; vaginal fungal load of mice, day 5 ([10]; 20 mg/kg): 3.75 ± 0.47; vaginal fungal load of mice, day 3 ([10]; 20 mg/kg): 4.09 ± 0.39; survival rate of mice, day 1 ([4]; 20 mg/kg intragastric once daily for 5 days, day 1): 100%; survival rate of mice, day 2 ([4]; 20 mg/kg intragastric once daily for 5 days, day 2): 100%; survival rate of mice, day 3 ([4]; 20 mg/kg intragastric once daily for 5 days, day 3): 90%; survival rate of mice, day 4 ([4]; 20 mg/kg intragastric once daily for 5 days, day 4): 80%; survival rate of mice, day 5 ([4]; 20 mg/kg intragastric once daily for 5 days, day 5): 70%; survival rate of mice, day 6 ([4]; 20 mg/kg intragastric once daily for 5 days, day 6): 60%; survival rate of mice, day 7 ([4]; 20 mg/kg intragastric once daily for 5 days, day 7): 60% |
| CC[C@@H]([C@H](C)O)n1ncn(-c2ccc(N3CCN(c4ccc(OC[C@@H]5CO[C@@](Cn6c[n+](C(C)OC(=O)N(C)c7ccccc7COC(=O)[C@@H](N)CCCN)cn6)(c6ccc(F)cc6F)C5)cc4)CC3)cc2)c1=O (stereo partly drawn) [ST0008] |  | 100 | 90 | 90 | 80 | 80 | 60 | 60 |  | > 50 |  |  |  |  |  |  |  |  |  | 2.59 ± 0.37 10^3 CFU/ml | lung fungal load [6]: 3.49 ± 0.64 10^4 CFU/ml; responders at 20 mg/kg ([8]; 24 h, read-out: survival rate of mice, day 1, 20 mg/kg tail vein once daily for 5 days, day 1): 100%; responders at 20 mg/kg ([8]; 48 h, read-out: survival rate of mice, day 2, 20 mg/kg tail vein once daily for 5 days, day 2): 100%; responders at 20 mg/kg ([8]; 72 h, read-out: survival rate of mice, day 3, 20 mg/kg tail vein once daily for 5 days, day 3): 100%; responders at 20 mg/kg ([8]; 96 h, read-out: survival rate of mice, day 4, 20 mg/kg tail vein once daily for 5 days, day 4): 90%; responders at 20 mg/kg ([8]; 120 h, read-out: survival rate of mice, day 5, 20 mg/kg tail vein once daily for 5 days, day 5): 80%; responders at 20 mg/kg ([8]; 144 h, read-out: survival rate of mice, day 6, 20 mg/kg tail vein once daily for 5 days, day 6): 80%; responders at 20 mg/kg ([8]; 168 h, read-out: survival rate of mice, day 7, 20 mg/kg tail vein once daily for 5 days, day 7): 70%; lung fungal load [8]: 2.07 ± 0.42 10^4 CFU/ml; vaginal fungal load of mice, day 15 [9]: 2.68 ± 0.18; vaginal fungal load of mice, day 3 [9]: 4.21 ± 0.32; vaginal fungal load of mice, day 5 [9]: 4.34 ± 0.47; vaginal fungal load of mice, day 7 [9]: 3.85 ± 0.35; vaginal fungal load of mice, day 11 [9]: 3.31 ± 0.29; vaginal fungal load of mice, day 5 [10]: 3.86 ± 0.21; vaginal fungal load of mice, day 3 [10]: 4.05 ± 0.25 |
